What was measured:
[1] = tested on: middle cerebral artery occlusion model rats; assay: Safety evaluation: death rate of experimental animals in the middle cerebral artery occlusion model; assay type: in vivo, Sprague-Dawley (SD) rats; settings: MCAo rats, from the time of administration until sacrifice; intravenous: oleic acid 100 mg/kg, sodium oleate solution 3 mg/kg, Clinoleic20% 200 mg/kg, SMOFlipid20% 500 mg/kg
Method: Right after degenerative brain disease induction, death rate was calculated by counting number of dead animals in every group from the time of administration until they were sacrificed.

[2] = tested on: erythroclasis (hemolysis); settings: cited from earlier work
[3] = tested on: middle cerebral artery occlusion model rats; assay: Neuroprotective effect in middle cerebral artery occlusion model (MCAo), TTC staining of brain slices; assay type: in vivo, Sprague-Dawley (SD) rats; settings: intravenous right after ischemia induction: Clinoleic20% 200 mg/kg, SMOFlipid20% 500 mg/kg, oleic acid 100 mg/kg, sodium oleate solution 3 mg/kg, TTC staining 24 hours after reperfusion
Method: 8 week-old adult male Sprague-Dawley (SD) rats, obtained from Samtako (Korea), weighing 300 g were kept in an environment to adapt to the experimental environment while providing enough feed and water. After one week of adaptation period, the animals were used for the following experiments.
In detail, a nylon suture (4-0, 22 mm) was prepared by silicone coating about 5-8 mm of the end of the suture to have 0.36 mm of diameter, and was used for experiment. The rats prepared in Experimental Example 1.1 were anesthetized with 5% of isoflurane in a mixture of gas (i.e. 70% N2O and 30% O2). A syringe was inserted in one side for blood collection and a probe was inserted in the other side to measure blood pressure. Then the blood glucose level and the blood gas level in the collected blood were measured.
Through midline neck incision, right carotid artery and external carotid artery (ECA), which are branches of external carotid artery, were separated. […]
24 hours after the reperfusion, the animals were sacrificed by cervical spine dislocation. […] The files were stored in a computer, and the infarct area (%) in each tissue slice was calculated according to the following equation 1 by using an analysis program (i.e. Optimas 6.5, Bioscan). The adjusted volume of the infarct area was calculated through following Equation 2. […]

[4] = tested on: transient local cerebral ischemia rat model; settings: cited from earlier work

Structure (SMILES)	Death Rate (%) [1]	Number of Dead Animals [1]	erythroclasis (hemolysis) in an in vitro test [2]	TTC-unstained area (neuronal cell death) of brain slices compared to the control group [3]	protective / neuroprotective efficacy [4]
CCCCCCCC/C=C\CCCCCCCC(=O)O [Oleic Acid, oleic acid]	18.1%	21	incurs erythroclasis (hemolysis)	less TTC-unstained area	superior neuroprotective efficacy
CCCCCCCC/C=C\CCCCCCCC(=O)[O-].[Na+] [Sodium Oleate, sodium oleate]	21.6%	8		less TTC-unstained area	

Reference: US11617774B2, “Composition for preventing or treating stroke or degenerative brain disease” (UNIVERSITY-INDUSTRY COOPERATION GROUP OF KYUNG HEE …, priority 2013, dated 2023)
